Measurements taken from PubChem BioAssay (NCI).
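Method: 48-hour compound exposure of cells in 96-well plates, five concentrations, linear interpolation of endpoints. GI50 = concentration required for 50% inhibition of growth. TGI: total growth inhibition.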

Key:
Assay in all cases: NCI-60 cell line screen, 48 h
COLO 205 colon = test system: COLO 205 colon
HL-60(TB) leukemia = test system: HL-60(TB) leukemia
MDA-MB-231 breast = test system: MDA-MB-231 breast
K-562 leukemia = test system: K-562 leukemia
LOX IMVI melanoma = test system: LOX IMVI melanoma
NCI-H226 lung = test system: NCI-H226 lung
IGROV1 ovarian = test system: IGROV1 ovarian
OVCAR-5 ovarian = test system: OVCAR-5 ovarian
NCI-H460 lung = test system: NCI-H460 lung
MALME-3M melanoma = test system: MALME-3M melanoma

SMILES	GI50 (COLO 205 colon)	TGI (COLO 205 colon)	GI50 (HL-60(TB) leukemia)	TGI (HL-60(TB) leukemia)	GI50 (MDA-MB-231 breast)	TGI (MDA-MB-231 breast)	GI50 (K-562 leukemia)	TGI (K-562 leukemia)	GI50 (LOX IMVI melanoma)	TGI (LOX IMVI melanoma)	GI50 (NCI-H226 lung)	TGI (NCI-H226 lung)	GI50 (IGROV1 ovarian)	TGI (IGROV1 ovarian)	GI50 (OVCAR-5 ovarian)	TGI (OVCAR-5 ovarian)	GI50 (NCI-H460 lung)	TGI (NCI-H460 lung)	GI50 (MALME-3M melanoma)	TGI (MALME-3M melanoma)
O=C(CC1Sc2ccccc2NC1=O)NNc1ccc(F)cc1 (configuration not stated)	55.6 µM	> 100 µM	7.9 µM	> 100 µM	47.6 µM	> 100 µM	4.67 µM	> 100 µM	4.51 µM	> 100 µM	41.3 µM	> 100 µM	40.5 µM	> 100 µM	> 100 µM	> 100 µM	30.8 µM	> 100 µM	> 100 µM	> 100 µM
CCC(C(=O)[C@@H](C)[C@@H](O)[C@H](C)[C@@H]1O[C@@H]([C@@H](CC)C(=O)ONC(=O)c2ccccc2)CC[C@@H]1C)[C@H]1O[C@]2(C=CC(=O)[C@]3(CC[C@@](C)([C@H]4CC[C@](O)(CC)[C@H](C)O4)O3)O2)[C@H](C)C[C@@H]1C (some centres not stated)	0.122 µM	1.78 µM	0.0875 µM	0.442 µM	0.295 µM	1.63 µM	0.171 µM	1.79 µM	0.316 µM	1.84 µM	0.749 µM	3.56 µM	0.198 µM	0.631 µM	0.498 µM	2.18 µM	0.331 µM	2.09 µM	0.168 µM	1.06 µM
C=C1C(=O)O[C@H]2[C@H]1CC/C(COC(=O)/C=C\C(=O)NCc1ccc(Cn3c(=O)sn(-c4ccc(Cl)cc4)c3=O)cc1)=C\CC[C@@]1(C)O[C@@H]21	0.564 µM	1.59 µM	0.696 µM	2.52 µM	0.758 µM	1.76 µM	0.409 µM	50 µM	0.193 µM	0.789 µM	1.24 µM	4.28 µM	0.638 µM	1.36 µM	0.834 µM	1.75 µM	0.811 µM	1.74 µM	0.852 µM	1.63 µM
C=CCN1C(=O)[C@]2(SC1=S)[C@H](c1cccc(Cl)c1)CN(C)[C@]21C(=O)NC2C=CC(Cl)=C[C@H]21 (some centres not stated)	1.78 µM	4.35 µM	1.33 µM	3.58 µM	2 µM	8.72 µM			1.73 µM	3.95 µM	1.59 µM	3.98 µM	2.98 µM	16.5 µM	4.35 µM	18.1 µM	3.62 µM	13.6 µM	2.88 µM	12.7 µM
CC(=O)/C=C/c1ccc(N(CCO)Cc2ccc(C(C)(C)C)cc2)cc1	29.3 µM	129 µM	24.9 µM	66.8 µM	87.9 µM	225 µM			28.3 µM	134 µM	73.3 µM	248 µM	112 µM	260 µM	63.3 µM	211 µM	39.9 µM	144 µM	65.3 µM	208 µM
Cc1ccc2c(c1)C(O)(c1ccccc1)CCS2 (configuration not stated)		> 100 µM		89.6 µM		39.8 µM		> 100 µM		36 µM		82.4 µM		65.7 µM		80.6 µM		> 100 µM		93.5 µM
Nc1nc(N)c(-c2ccc(Cl)c(Cl)c2)c(CP(Cl)(Cl)(Cl)Br)n1	10.4 µM	> 100 µM	4.07 µM	31.6 µM	9.62 µM	> 100 µM	2.79 µM	> 100 µM	2.72 µM	> 100 µM	99.7 µM	> 100 µM	8.92 µM	61.8 µM	6.96 µM	> 100 µM	1.58 µM	> 100 µM	18.4 µM	72.1 µM
CCC(=C(c1ccc(OCCN2CCCC2)cc1)c1ccc(OCCN2CCCC2)cc1)c1ccc(Cl)cc1	0.615 µM	1.25 µM	0.606 µM	1.27 µM	0.589 µM	1.11 µM	0.226 µM	0.751 µM	0.54 µM	1.02 µM	0.735 µM	1.63 µM	0.582 µM	1.1 µM	0.568 µM	1.11 µM	0.624 µM	1.18 µM	0.564 µM	1.07 µM
COc1ccc2nc3ccccc3c(NCc3ccccc3)c2c1	1.54 µM	3.54 µM	2.15 µM	4.81 µM	1.85 µM	4.38 µM	2.43 µM	11.5 µM	1.61 µM	3.29 µM	2.79 µM	8.69 µM	2.34 µM	6.66 µM	2.25 µM	7.35 µM	2.19 µM	4.86 µM	1.75 µM	3.22 µM
OCC1OC(n2cnc3c(NCc4ccco4)ncnc32)C(O)C1O (configuration not stated)	2.25 µM	7.83 µM	0.724 µM	3.48 µM	0.348 µM	18.8 µM	4.47 µM	> 100 µM	0.338 µM	1.48 µM	12 µM	> 71.2 µM	2.09 µM	13.9 µM	4.76 µM	> 100 µM	2.79 µM	32.8 µM	5.91 µM	48.1 µM
O=C1c2ccccc2C(=O)c2sc(Nc3ccc([N+](=O)[O-])cc3)nc21		19 µM		2.52 µM		6.39 µM		5.98 µM		4.66 µM		35.9 µM		26.2 µM		29.8 µM		34.4 µM		12.6 µM
CCN(CC)CCCNc1cc(OC)c(OC)c2cccnc12	10 µM	23.2 µM	3.47 µM	6.55 µM	6.69 µM	51.4 µM	5.22 µM	> 100 µM	2.22 µM	34.4 µM	15.2 µM	37.7 µM			20.6 µM	51.1 µM	1.47 µM	16.9 µM	12.8 µM	31.1 µM
Cc1cn2c(/C=C3\C(=O)N(C)c4ccc(Cl)cc43)c(C)nc2s1	3.47 µM	> 100 µM	3.36 µM	> 100 µM	4.5 µM	23.5 µM			5.05 µM	> 100 µM	18.5 µM	> 100 µM	2.99 µM	> 100 µM	3.16 µM	12.2 µM	2.86 µM	15.3 µM	69.6 µM	> 100 µM
